According to patent US10457710B2, “Antimicrobial peptides, their variants and uses” (priority 2015, dated 2019):

Assays:
Assay in all cases: MIC, micro broth dilution assay
Assay type in all cases: cell-based
[1] = test system: Klebsiella pneumoniae (ATCC 10031)
Protocol: (§1) Minimum inhibition concetrations (MICs) were determined against Escherichia coli (ATCC 25922), Staphylococcus aureus (ATCC 25923), Klebsiella pneumoniae (ATCC 10031) and Pseudomonas aeruginosa (ATCC 27853). Also clinical strains of E. coli, K. pneumoniae, E. cloacae, P. aeruginosa, Serratia marcescens, Proteus mirabilis, S. pneumoniae, Acinetobacter baumannii, A. johnsonii and S. aureus were used for MICs assays. Additionally, clinical strains of yeast including Candida albicans, C. glabrata, C. parapsilosis and C. quillermondiae were used. The susceptibility of these microorganisms to Chain peptides were determined using micro broth dilution assay. Colonies of the respective microorganism from Muller Hinton (MH) agar plates incubated overnight were suspended in MH broth media and final concentration of microorganism was adjusted to 5.0×10^5 cfu/ml. An aliquot of 10 μl of each Chain peptide, or gentamicin, tetracycline as reference antibiotics were added in differing concentrations along with 90 μl of bacterial suspension to 96 well polypropylene plates and incubated at 37° C. for 20 to 24 hours. […] Similarly, antifungal MICs were tested in Potato dextrose broth.

[2] = test system: Pseudomonas aeruginosa (ATCC 27853)
Protocol: as §1

[3] = test system: Escherichia coli (ATCC 25922)
Protocol: as §1

[4] = test system: Staphylococcus aureus (ATCC 25923)
Protocol: as §1

Gentamicin [reference compound]
Minimum inhibitory concentration, Klebsiella pneumoniae (ATCC 10031) [1]: 0.25 µg/mL | Minimum inhibitory concentration, Pseudomonas aeruginosa (ATCC 27853) [2]: 0.25 µg/mL | Minimum inhibitory concentration, Escherichia coli (ATCC 25922) [3]: 1 µg/mL | Minimum inhibitory concentration, Staphylococcus aureus (ATCC 25923) [4]: 0.25 µg/mL
